Laboratory results: paper PMC10294378, “Synthesis, α-Glucosidase inhibitory activity and docking studies of Novel Ethyl 1,2,3-triazol-4-ylmethylthio-5,6-diphenylpyridazine-4-carboxylate derivatives” (BMC Chemistry, 2023)
“Also recorded” adds a separate entry of the source.

Key:
α-glucosidase = assay: Kinetic analysis (Lineweaver-Burk and secondary plot); type: biochemical, rat
Description: Modes of enzyme inhibition were determined by recording the effect of various concentrations of the substrates 1, 2.5, 5 or 10 mM pNPG for α-glucosidase on Lineweaver–Burk plots using calculated Vmax and Km. For inhibition test of α-glucosidase: the concentrations applied for compounds 10k was 0.1, 1, 5 and 10 nM. Inhibition constants (Ki) were determined by depicting the secondary plot of Km against various concentrations of inhibitors.
The activity of […] (PNPG) was investigated in the presence and absence of compound 10k.

HDF = assay: Cytotoxicity against normal cell line; type: cell-based
[1] = molecular target: rat small intestine α-glucosidase; assay: Rat α-glucosidase assay (4-nitrophenol release from pNPG); type: biochemical; details: for IC50: rat small intestine α-glucosidase, means of three replicates ± standard deviation; for α-glucosidase inhibitory activity (in words): SAR discussion
Description: Based on the reported method of Lossow et al., rat small intestine α-glucosidase (EC 3.2.1.20) was prepared. The in-vitro activity was determined by the measurement of 4-nitrophenol which was released from para-nitrophenyl α-D glucopyranoside. The preparation of 200 µL was performed as follows: the enzyme solution (190 µL, 0.15 units/ml), different concentrations of target compounds (1, 10, 20, 50, 100, 500 and 1000 µM (5 µL), potassium phosphate buffer. Final compounds were dissolved in DMSO (not exceed than 5% of final volume) and pre-incubated at 37 °C, p-nitrophenyl glucopyranoside and then substrate (5 µL, 3 mM), was added to the enzyme solution and incubated for further one hour at 37 °C. Finally, by using Cytation 3 hybrid microplate reader (BioTek, USA) any change in the absorbance was measured at 405 nm. By using GraphPadprism 6.0 (SanDiego, California, USA) (https://www.graphpad.com/scientificsoftware/prism/) was used to obtain IC50 values of tested compounds.

Row | melting point [°C] | mode of inhibition (α-glucosidase) | IC50 [1] [µM] | folds more active than standard drug (acarbose) ([1]; ratio of IC50 values against acarbose) [folds] | α-glucosidase inhibitory activity (in words) [1] | Compound | cytotoxicity (HDF)
1 | 224 to 226 | uncompetitive | 1.7 ± 0.12 | 100 | – | CCOC(=O)c1c(SCc2cn(CC(=O)Nc3ccc(Br)cc3)nn2)nnc(-c2ccccc2)c1-c1ccccc1 [Compound 10k, Ethyl 3-(((1-(2-((4-bromophenyl)amino)-2-oxoethyl)-1H-1,2,3-triazol-4-yl)methyl)thio)-5,6-diphenylpyridazine-4-carboxylate] | not toxic; also recorded: No toxicity
2 | 211 to 213 | – | 37.5 ± 7.2 | – | – | CCOC(=O)c1c(SCc2cn(CC(=O)Nc3ccc(F)cc3)nn2)nnc(-c2ccccc2)c1-c1ccccc1 [10 g, Ethyl 3-(((1-(2-((4-fluorophenyl)amino)-2-oxoethyl)-1H-1,2,3-triazol-4-yl)methyl)thio)-5,6-diphenylpyridazine-4-carboxylate] | –
3 | – | – | 58.9 ± 7.5 | – | – | CCOC(=O)c1c(SCc2cn(CC(=O)Nc3cccc(C)c3)nn2)nnc(-c2ccccc2)c1-c1ccccc1 [Compound 10b, Ethyl 3-(((1-(2-oxo-2-(m-tolylamino)ethyl)-H-1,2,3-triazol-4-yl)methyl)thio)-5,6-diphenylpyridazine-4-carboxylate] | –
4 | 155 to 157 | – | 35.7 ± 3.9 | – | – | CCOC(=O)c1c(SCc2cn(CC(=O)Nc3cccc(OC)c3)nn2)nnc(-c2ccccc2)c1-c1ccccc1 [Compound 10e, Ethyl 3-(((1-(2-((3-methoxyphenyl)amino)-2-oxoethyl)-1H-1,2,3-triazol-4-yl)methyl)thio)-5,6-diphenylpyridazine-4-carboxylate] | –
5 | 195 to 197 | – | 21 ± 5.3 | – | – | CCOC(=O)c1c(SCc2cn(CC(=O)Nc3ccc(Cl)cc3)nn2)nnc(-c2ccccc2)c1-c1ccccc1 [Compound 10j, Ethyl 3-(((1-(2-((4-chlorophenyl)amino)-2-oxoethyl)-1H-1,2,3-triazol-4-yl)methyl)thio)-5,6-diphenylpyridazine-4-carboxylate] | –
6 | 221 to 223 | – | 47.1 ± 5.6 | – | active | CCOC(=O)c1c(SCc2cn(CC(=O)Nc3ccc([N+](=O)[O-])cc3)nn2)nnc(-c2ccccc2)c1-c1ccccc1 [Compound 10q, Ethyl 3-(((1-(2-((4-nitrophenyl)amino)-2-oxoethyl)-1H-1,2,3-triazol-4-yl)methyl)thio)-5,6-diphenylpyridazine-4-carboxylate] | –
7 | 183 to 185 | – | 86.5 ± 7.3 | – | – | CCOC(=O)c1c(SCc2cn(CC(=O)Nc3ccc(C(C)C)cc3)nn2)nnc(-c2ccccc2)c1-c1ccccc1 [Compound 10d, Ethyl 3-(((1-(2-((4-isopropylphenyl)amino)-2-oxoethyl)-1H-1,2,3-triazol-4-yl)methyl)thio)-5,6-diphenylpyridazine-4-carboxylate] | –
8 | 230 to 232 | – | 25.2 ± 2.5 | – | – | CCOC(=O)c1c(SCc2cn(CC(=O)Nc3ccc(OC)cc3)nn2)nnc(-c2ccccc2)c1-c1ccccc1 [Compound 10f, Ethyl 3-(((1-(2-((4-methoxyphenyl)amino)-2-oxoethyl)-1H-1,2,3-triazol-4-yl)methyl)thio)-5,6-diphenylpyridazine-4-carboxylate] | –
9 | 207 to 209 | – | > 250 | – | – | CCOC(=O)c1c(SCc2cn(CC(=O)Nc3ccc(C)cc3)nn2)nnc(-c2ccccc2)c1-c1ccccc1 [Compound 10c, Ethyl 3-(((1-(2-oxo-2-(p-tolylamino)ethyl)-1H-1,2,3-triazol-4-yl)methyl)thio)-5,6-diphenylpyridazine-4-carboxylate] | –

Second part, the molecule before the results:

Row | Compound | melting point [°C] | mode of inhibition (α-glucosidase) | IC50 [1] [µM] | folds more active than standard drug (acarbose) ([1]; ratio of IC50 values against acarbose) [folds] | α-glucosidase inhibitory activity (in words) [1] | cytotoxicity (HDF)
10 | CCOC(=O)c1c(SCc2cn(CC(=O)Nc3ccccc3)nn2)nnc(-c2ccccc2)c1-c1ccccc1 [Compound 10a, Ethyl 3-(((1-(2-oxo-2-(phenylamino)ethyl)-1H-1,2,3-triazol-4-yl)methyl)thio)-5,6-diphenylpyridazine-4-carboxylate] | 147 to 149 | – | 35.6 ± 8.9 | – | – | –
11 | CCOC(=O)c1c(SCc2cn(CC(=O)Nc3cccc(Cl)c3)nn2)nnc(-c2ccccc2)c1-c1ccccc1 [Compound 10i, Ethyl 3-(((1-(2-((3-chlorophenyl)amino)-2-oxoethyl)-1H-1,2,3-triazol-4-yl)methyl)thio)-5,6-diphenylpyridazine-4-carboxylate] | 200 to 202 | – | > 250 | – | no inhibitory activity | –
12 | C[C@H]1O[C@H](O[C@H]2[C@H](O)[C@@H](O)[C@@H](O[C@H]3[C@H](O)[C@@H](O)C(O)O[C@@H]3CO)O[C@@H]2CO)[C@H](O)[C@@H](O)[C@@H]1N[C@H]1C=C(CO)[C@@H](O)[C@H](O)[C@H]1O (stereo partly drawn) [Acarbose, reference compound] | – | – | 170 ± 23.1 | – | – | –
13 | CCOC(=O)c1c(SCc2cn(CC(=O)Nc3cccc(C#N)c3)nn2)nnc(-c2ccccc2)c1-c1ccccc1 [Compound 10n, Ethyl 3-(((1-(2-((3-cyanophenyl)amino)-2-oxoethyl)-1H-1,2,3-triazol-4-yl)methyl)thio)-5,6-diphenylpyridazine-4-carboxylate] | 196 to 198 | – | > 250 | – | – | –
14 | CCOC(=O)c1c(SCc2cn(CC(=O)Nc3cccc([N+](=O)[O-])c3)nn2)nnc(-c2ccccc2)c1-c1ccccc1 [Compound 10p, Ethyl 3-(((1-(2-((3-nitrophenyl)amino)-2-oxoethyl)-1H-1,2,3-triazol-4-yl)methyl)thio)-5,6-diphenylpyridazine-4-carboxylate] | 201 to 203 | – | 84 ± 13.2 | – | – | –
15 | CCOC(=O)c1c(SCc2cn(CC(=O)Nc3ccc(Cl)c(Cl)c3)nn2)nnc(-c2ccccc2)c1-c1ccccc1 [10 m, Ethyl 3-(((1-(2-((3,4-dichlorophenyl)amino)-2-oxoethyl)-1H-1,2,3-triazol-4-yl)methyl)thio)-5,6-diphenylpyridazine-4-carboxylate] | 166 to 168 | – | 27.7 ± 3 | – | active | –
16 | CCOC(=O)c1c(SCc2cn(CC(=O)Nc3cc(Cl)cc(Cl)c3)nn2)nnc(-c2ccccc2)c1-c1ccccc1 [10 L, Ethyl 3-(((1-(2-((3,5-dichlorophenyl)amino)-2-oxoethyl)-1H-1,2,3-triazol-4-yl)methyl)thio)-5,6-diphenylpyridazine-4-carboxylate] | 185 to 187 | – | 14.1 ± 3.3 | – | active | –
17 | CCOC(=O)c1c(SCc2cn(CC(=O)Nc3ccc([N+](=O)[O-])c(C)c3)nn2)nnc(-c2ccccc2)c1-c1ccccc1 [Compound 10r, Ethyl 3-(((1-(2-((3-methyl-4-nitrophenyl)amino)-2-oxoethyl)-1H-1,2,3-triazol-4-yl)methyl)thio)-5,6-diphenylpyridazine-4-carboxylate] | 212 to 214 | – | > 250 | – | no activity | –
18 | CCOC(=O)c1c(SCc2cn(CC(=O)Nc3ccccc3Cl)nn2)nnc(-c2ccccc2)c1-c1ccccc1 [10 h, Ethyl 3-(((1-(2-((2-chlorophenyl)amino)-2-oxoethyl)-1H-1,2,3-triazol-4-yl)methyl)thio)-5,6-diphenylpyridazine-4-carboxylate] | 161 to 163 | – | 14.9 ± 1.9 | – | – | –
